# Where two headings read alike, the source gives them in different places.
# Legend:
# GBF1 = biological target: T1, GBF1 (Homo sapiens, UniProt Q92538); experiment: GBF1-GFP distribution in transfected HeLa cells; assay type: cell-based; conditions: FLI-06 10 μM, BFA 10 μg/ml, GCA 10 μM, 10 h
# T1 construct: expressed in transfected cells; host or cells: HeLa (transient)
# BIP and ATF6 [1] = test system: BIP and ATF6
# Golgi apparatus = experiment: Immunofluorescence of Golgi and early secretory pathway markers in HeLa cells; assay type: cell-based
# endocytosis = experiment: Transferrin uptake assay; assay type: cell-based
# Procedure: FIG. 13: FLI-06 causes dispersal of early Golgi and TGN, but no tubulation of endosomes. Hela cells were incubated with DMSO or 10 iM FLI-06 or 1 ig/ml BFA for 18 h, fixed, stained with antibodies as indicated and imaged by fluorescence microscopy. Endosomes were visualized by adding Alexa555-labelled transferrin on ice and chasing for 15 min at 37° C. in the presence of indicated compounds. Arrows indicated tubulating endosomes, scalebar 10 im.
# For the transferrin uptake assay cells were starved in serum free medium for 1 h at 37° C. Cells were then transferred on ice and medium was exchanged to serum free medium supplemented with 25 μg/ml AlexaFluor555-Transferrin conjugate (Molecular Probes) and test compounds. After 15 min on ice cells were incubated with pre-warmed serum-supplemented medium containing test compounds and incubated at 37° C.
# YFP-GPI = experiment: Surface transport of YFP-GPI in HeLa cells; assay type: cell-based; conditions: 18 h; 1 ig/ml BFA or 10 iM FLI-06
# KlothoS = experiment: Secretion of KlothoS from transfected HeLa cells; assay type: cell-based; conditions: 18 h
# Procedure: Thereafter cells were fixed and analyzed by immunofluorescence microscopy. […] After incubating with compounds for 18 h media were collected, cells lysed and both analyzed by Western Blotting using Klotho antibody. As loading control membranes were probed for actin. […] […] Tunicamycin (Tun) and 5 mM DTT were used as positive controls. […] Shown is the average of three independent experiments, error bars indicate standard deviation.
# BIP and ATF6 [2] = experiment: ER stress: BIP Western blot and ATF6 luciferase assay in HeLa cells; conditions: 6 or 24 h
# microtubuli or actin = experiment: Microtubule and actin integrity in HeLa cells; assay type: cell-based; conditions: 4 h
# NotchΔE-EGFP = experiment: cells; assay type: cell-based
# From the text: To identify novel regulatory factors involved in Notch trafficking/processing an image-based high content screen was set up. […] NotchΔE-EGFP is a direct substrate for γ-secretase at the PM, and under physiological conditions is proteolytically processed to NICD-EGFP that translocates into the nucleus (for scheme see FIG. 1b), resulting in a strong nuclear EGFP-staining in steady state^15 (FIG. 1d). […] Importantly, changes in subcellular localization of the reporter are amenable to quantitation by automated microscopy^15. Accordingly, reporter fluorescence was determined in the nucleus (nuc) and in a ring around the nucleus (enuc), and the ratio enuc/nuc was evaluated (schematized in FIG. 1c). Thereafter, the assay design was functionally validated. […] The assay also reliably detected trafficking defects in the secretory pathway. […] Taken together, the assay was validated for reliably detecting concentration and time dependent changes in trafficking and processing of the Notch reporter.
# Cells were seeded in 96-well plates at a density of 5000 cells/well in 100 μl medium. The next day, 100 μl medium containing the respective test compounds was added. Cells were incubated for 16 h, fixed and processed for automated microscopy. For the putative gamma-secretase inhibitors the enuc intensity was divided by the DAPT control and for the trafficking inhibitors normalized percentage inhibition against DAPT/DMSO controls of log 2 transformed nuc/enuc ratios were calculated. Relative activity values were read into “R” (http://www.r-project.org/) and EC50 estimates were calculated using four-parameter log-logistic fit with the package “drc”^51.
# Images were acquired on an ArrayScan VTi automated microscope (ThermoFisher) and numerical data were extracted with the Compartmental Analysis BioApplication of the bundled software suite. Compound screening raw data were collected at the FMP and data transformation was performed according to standard procedures (ref 17 and supp. Refs 6-7).
# COPII vesicles = experiment: In vitro COPII budding assay with permeabilized cells; assay type: biochemical; conditions: no FLI-06 pretreatment of cells
# ER = ER tubule-to-sheet live-cell imaging in COS cells (prlss-KDEL-mRFP); assay type: cell-based; conditions: 10 iM, 2 h
# Procedure: FIG. 7: FLI-06 induces ER sheet formation. A) COS cells transfected with prlss-KDEL-mRFP were incubated with 10 μM FLI-06 for indicated times and imaged by live-cell microscopy. The inserts are magnifications of the boxed areas. B) Images from cells treated as in A) were scored for the percentage of cells that lost most of their ER-tubules. For each time point 40-60 cells were counted. Data represent mean percentages, error bars SEM, n=3 independent experiments.
# FIG. 16: Only ER exit inhibitors convert ER tubules to sheets. COS cells plated on LabTek chambered coverslips were transiently transfected with the ER-marker prlss-KDEL-mRFP, incubated the next day for 2 h with 10 iM of indicated compounds and imaged by live-cell microscopy. […] FLI-06+CHX, cells were additionally incubated in 40 iM cycloheximide. Nife, nifedipine; nimo, nimodipine. Numbers refer to numbering in FIG. 5a.
# We noted a morphological change of the ER upon FLI-06 incubation that was difficult to capture in fixed cells. Live-cell imaging was therefore performed in COS cells transfected with the ER marker prlss-KDEL-mRFP (supp. Ref 3) and FLI-06 was added for 120 min (FIG. 7a). After 120 min almost all cells had no detectable ER-tubules anymore and instead were filled with large sheet-like structures. […] To test whether the morphological change is related to the inhibition of ER exit, next our set of FLI-06 derivatives was tested. […] Rather, the ER-sheets are indicative for structural changes, maybe initiated within ERES, that inhibit ER exit.
# T1 sequence (Q92538 whole entry, species assumed): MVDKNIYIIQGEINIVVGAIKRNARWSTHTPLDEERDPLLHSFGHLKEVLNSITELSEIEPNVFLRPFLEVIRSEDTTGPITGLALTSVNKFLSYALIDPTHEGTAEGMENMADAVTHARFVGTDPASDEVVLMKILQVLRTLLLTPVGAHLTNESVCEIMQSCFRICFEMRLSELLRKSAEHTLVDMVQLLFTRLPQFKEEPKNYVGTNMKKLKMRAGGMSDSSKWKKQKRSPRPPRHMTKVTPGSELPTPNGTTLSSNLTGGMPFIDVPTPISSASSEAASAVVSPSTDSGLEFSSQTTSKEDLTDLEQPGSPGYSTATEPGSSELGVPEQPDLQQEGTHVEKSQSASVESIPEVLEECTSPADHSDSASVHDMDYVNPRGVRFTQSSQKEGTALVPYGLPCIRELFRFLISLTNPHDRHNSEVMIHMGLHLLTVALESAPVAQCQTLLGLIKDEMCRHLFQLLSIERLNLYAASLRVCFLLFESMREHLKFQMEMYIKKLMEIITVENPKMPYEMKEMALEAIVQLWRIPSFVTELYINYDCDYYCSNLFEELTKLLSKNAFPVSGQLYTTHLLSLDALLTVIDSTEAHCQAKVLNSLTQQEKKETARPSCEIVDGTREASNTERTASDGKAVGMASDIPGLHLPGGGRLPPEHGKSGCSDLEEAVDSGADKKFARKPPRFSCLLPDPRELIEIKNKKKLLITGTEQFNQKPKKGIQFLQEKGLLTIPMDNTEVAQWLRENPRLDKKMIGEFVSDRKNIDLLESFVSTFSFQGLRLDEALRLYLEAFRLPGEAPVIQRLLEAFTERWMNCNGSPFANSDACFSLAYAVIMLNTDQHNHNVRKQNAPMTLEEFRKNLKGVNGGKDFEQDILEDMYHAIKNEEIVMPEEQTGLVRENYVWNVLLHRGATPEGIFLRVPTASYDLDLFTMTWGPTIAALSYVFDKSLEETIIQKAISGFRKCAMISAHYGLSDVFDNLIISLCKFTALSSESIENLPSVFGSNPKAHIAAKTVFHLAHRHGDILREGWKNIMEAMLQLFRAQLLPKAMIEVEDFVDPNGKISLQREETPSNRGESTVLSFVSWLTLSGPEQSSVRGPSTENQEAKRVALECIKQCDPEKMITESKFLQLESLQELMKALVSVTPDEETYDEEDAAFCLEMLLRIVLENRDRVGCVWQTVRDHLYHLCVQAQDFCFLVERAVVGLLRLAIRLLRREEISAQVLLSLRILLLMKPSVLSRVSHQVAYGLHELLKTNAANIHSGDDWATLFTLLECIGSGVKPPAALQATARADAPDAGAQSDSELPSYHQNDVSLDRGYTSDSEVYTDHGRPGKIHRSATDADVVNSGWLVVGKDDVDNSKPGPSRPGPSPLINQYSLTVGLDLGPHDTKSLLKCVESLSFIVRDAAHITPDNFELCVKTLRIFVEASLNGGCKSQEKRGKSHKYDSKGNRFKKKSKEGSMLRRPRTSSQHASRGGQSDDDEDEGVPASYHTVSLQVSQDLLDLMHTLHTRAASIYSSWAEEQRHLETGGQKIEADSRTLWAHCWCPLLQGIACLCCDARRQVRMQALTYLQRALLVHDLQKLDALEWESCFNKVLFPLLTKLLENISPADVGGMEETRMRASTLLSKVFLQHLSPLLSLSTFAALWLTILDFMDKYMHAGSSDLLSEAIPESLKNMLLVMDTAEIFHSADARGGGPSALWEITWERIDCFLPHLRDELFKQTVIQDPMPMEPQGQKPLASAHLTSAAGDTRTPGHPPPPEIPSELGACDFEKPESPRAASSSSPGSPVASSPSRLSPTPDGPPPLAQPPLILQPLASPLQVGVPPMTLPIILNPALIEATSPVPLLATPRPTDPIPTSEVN
smiles,measurement,setting,value
"Fc1cc(F)c2c(c1)[C@H]1C=CC[C@H]1C(c1cccnc1)N2 (mixture of isomers) [GCA, Golgicide A, reference compound]",distribution of GBF1-GFP,GBF1,recruited to the fragmented Golgi
same,"ER-stress (BIP up-regulation, ATF6 luciferase)",BIP and ATF6 [1],caused ER-stress
"C[C@H]1CCC/C=C/[C@@H]2C[C@H](O)C[C@H]2[C@H](O)/C=C/C(=O)O1 [BFA, Brefeldin A, reference compound]",time to loss of Golgi-like juxtanuclear βCOP staining,Golgi apparatus; 1 ig/ml BFA or 10 iM FLI-06,10 min
same,distribution of GM130 and TGN46,"Golgi apparatus; 10 iM FLI-06 or 1 ig/ml BFA, 18 h",dispersal of the cis-Golgi marker GM130 and of the trans-Golgi network (TGN) marker TGN46
same,hyperglycosylation of VSVG-EGFP,Golgi apparatus; 4 h at 40° C. with cycloheximide,led to hyperglycosylation in the ER
same,endocytosis of transferrin,endocytosis,did not affect endocytosis
same,distribution of GBF1-GFP,GBF1,recruited to the fragmented Golgi
same,surface transport of YFP-GPI,YFP-GPI,inhibit surface transport of YFP-GPI
same,secretion of KlothoS,KlothoS,inhibit secretion of KlothoS
same,"ER-stress (BIP up-regulation, ATF6 luciferase)",BIP and ATF6 [2],caused ER-stress
"C=C1[C@@H](C)[C@H]2[C@H](Cc3ccccc3)NC(=O)[C@]23[C@H](OC(C)=O)/C=C/[C@@](C)(O)C(=O)[C@@H](C)C/C=C/[C@H]3[C@@H]1O [Cytochalasin D, cytochalasin D, reference compound]",actin polymerization and distribution,microtubuli or actin; 2 iM cytochalasin D or 10 iM FLI-06,depolymerized f-actin
CC1=C(C(=O)OC2CCCCC2)C(c2ccccc2)C2=C(CC(C)(C)CC2=O)N1 (stereo not shown) [FLI-25],activity in NotchΔE-EGFP cells (enuc/nuc ratios),"NotchΔE-EGFP; SAR and prior-art comparison, FIG. 5a/5b",inactive
same,"COPII budding reaction, compound added directly to the assay",COPII vesicles,neither 10 nor 100 μM of FLI-25 had an effect
CCCCCOC(=O)C1=C(C)NC2=C(C(=O)CC(C)(C)C2)C1c1ccc([N+](=O)[O-])cc1 (stereo not shown) [FLI-27],ER tubule-to-sheets phenotype,ER,elicited the tubule-to-sheets phenotype
CC1=C(C(=O)OC2CCCCCC2)C(c2ccc([N+](=O)[O-])cc2)C2=C(CC(C)(C)CC2=O)N1 (stereo not shown) [FLI-28],activity relative to compound 1 (FLI-06),NotchΔE-EGFP; enuc/nuc ratios in NotchΔE-EGFP cells,twice as active as compound 1
same,ER tubule-to-sheets phenotype,ER,elicited the tubule-to-sheets phenotype
"O=S(=O)(NCCNC/C=C/c1ccc(Br)cc1)c1cccc2cnccc12 [H89, reference compound]","COPII budding reaction, compound added directly to the assay",COPII vesicles,completely blocked formation of COPII vesicles
CC1=C(C(=O)OC2CCCCC2)C(c2ccccc2)C2=C(CC(C)(C)CC2=O)N1 (stereo not shown) [compound 5],ER tubule-to-sheets phenotype,ER,elicited the tubule-to-sheets phenotype
"COC(=O)Nc1nc2ccc(C(=O)c3cccs3)cc2[nH]1 [nocodazole, reference compound]",microtubule network,microtubuli or actin; 1.5 ig/ml nocodazole or 10 iM FLI-06,almost completely disintegrated

# From US9828344B2, “Inhibitors of the notch signaling pathway and secretion for use in medicine” (Leibniz-Institut für Altersforschung Fritz-Lipmann-Institut …, priority 2012, dated 2017)
